# From patent US20190060249A1 (priority 2017, published 2019)
# Legend:
# ALDH4A1 = biological target: T1, ALDH4A1 (Homo sapiens, UniProt P30038); experiment: ALDH enzymatic assay, recombinant ALDH4A1; format: biochemical; details: 5 μg/ml recombinant enzyme, 10 mM acetaldehyde, 20 μM Alda-341
# T1 sequence (P30038 25-563): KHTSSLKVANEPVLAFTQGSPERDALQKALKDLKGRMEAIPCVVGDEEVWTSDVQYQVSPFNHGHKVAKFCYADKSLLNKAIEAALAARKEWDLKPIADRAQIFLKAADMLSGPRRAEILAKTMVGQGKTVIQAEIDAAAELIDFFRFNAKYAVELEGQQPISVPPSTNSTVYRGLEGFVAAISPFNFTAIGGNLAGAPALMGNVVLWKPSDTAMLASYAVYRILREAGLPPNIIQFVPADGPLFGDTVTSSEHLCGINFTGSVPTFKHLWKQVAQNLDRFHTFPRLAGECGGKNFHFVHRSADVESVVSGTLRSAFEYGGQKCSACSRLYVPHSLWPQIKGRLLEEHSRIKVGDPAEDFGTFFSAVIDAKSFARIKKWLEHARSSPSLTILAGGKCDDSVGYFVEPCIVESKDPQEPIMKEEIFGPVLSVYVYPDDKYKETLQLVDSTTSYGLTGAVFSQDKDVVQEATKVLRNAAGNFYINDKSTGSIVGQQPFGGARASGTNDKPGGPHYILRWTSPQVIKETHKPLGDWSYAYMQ
# Method: (§1) ALDH enzymatic assay: ALDH1A1, ALDH1A2, 2, 3A1, 3A2, 4A1, 5A1, 7A1 were measured as previously described using 5 μg/ml of recombinant protein (Chen, C. H., Cruz, L. A., and Mochly-Rosen, D. (2015) Pharmacological recruitment of aldehyde dehydrogenase 3A1 (ALDH3A1) to assist ALDH2 in acetaldehyde and ethanol metabolism in vivo. Proceedings of the National Academy of Sciences of the United States of America 112, 3074-3079). […] Assays were conducted in 50 mM NaPPi buffer (pH 7.4) in the presence of 2.5 mM NAD^+ and 10 mM substrate and measured in triplicate at 25° C. Dose response curve fits and EC50's were calculated using GraphPad Prism 7 software.
# ALDH5A1 = biological target: T2, ALDH5A1 (Homo sapiens, UniProt P51649); experiment: ALDH enzymatic assay, recombinant ALDH5A1; format: biochemical; details: 5 μg/ml recombinant enzyme, 10 mM acetaldehyde, 20 μM Alda-341
# T2 sequence (P51649 48-535): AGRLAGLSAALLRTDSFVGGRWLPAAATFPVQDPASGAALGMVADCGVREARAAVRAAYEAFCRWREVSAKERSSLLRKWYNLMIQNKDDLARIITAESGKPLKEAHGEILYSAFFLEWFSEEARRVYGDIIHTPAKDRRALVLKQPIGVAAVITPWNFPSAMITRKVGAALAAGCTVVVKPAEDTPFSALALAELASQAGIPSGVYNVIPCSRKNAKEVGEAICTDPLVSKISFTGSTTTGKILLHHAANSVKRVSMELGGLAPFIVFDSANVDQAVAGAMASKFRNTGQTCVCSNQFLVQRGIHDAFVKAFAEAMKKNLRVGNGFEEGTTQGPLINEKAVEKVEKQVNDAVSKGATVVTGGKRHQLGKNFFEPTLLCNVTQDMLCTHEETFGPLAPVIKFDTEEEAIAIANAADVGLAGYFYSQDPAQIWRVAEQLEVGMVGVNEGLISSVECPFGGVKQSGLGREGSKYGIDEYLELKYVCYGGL
# Method: as §1
# ALDH3A1 = biological target: T3, ALDH3A1 (Homo sapiens, UniProt P30838); experiment: ALDH fluorescence-coupled enzymatic assay, all-trans-retinal substrate, ALDH3A1; format: biochemical
# T3 sequence (P30838 1-453): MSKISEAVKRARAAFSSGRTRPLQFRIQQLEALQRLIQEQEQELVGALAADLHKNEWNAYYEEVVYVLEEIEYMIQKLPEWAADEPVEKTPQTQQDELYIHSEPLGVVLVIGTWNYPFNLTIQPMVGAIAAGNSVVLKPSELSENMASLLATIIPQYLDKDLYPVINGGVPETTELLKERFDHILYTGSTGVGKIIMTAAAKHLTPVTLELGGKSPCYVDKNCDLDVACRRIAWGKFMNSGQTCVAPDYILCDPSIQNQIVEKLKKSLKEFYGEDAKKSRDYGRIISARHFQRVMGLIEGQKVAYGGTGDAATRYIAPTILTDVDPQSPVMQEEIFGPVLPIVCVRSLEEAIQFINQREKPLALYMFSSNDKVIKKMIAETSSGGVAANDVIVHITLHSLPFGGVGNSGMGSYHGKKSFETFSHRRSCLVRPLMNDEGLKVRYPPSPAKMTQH
# Method: (§2) Assay conditions were modified from the original enzyme assay protocol above using 50 mM NaPPi buffer (pH 7.4), 2.5 mM NAD^+, 10 mM acetaldehyde or all-trans-retinal substrate with the addition of 1 U/mL diaphorase and 0.1 mM resazurin for the secondary reaction. Measurements were collected in triplicate at 25° C.
# [1] = system: mouse primary salivary sphere lysate; experiment: ALDH fluorescence-coupled enzymatic assay in salivary sphere lysate; format: biochemical; details: 10 mM acetaldehyde, 100 μM Alda-341
# Method: as §2
# All measurements were collected in triplicate, and error bars represent SEM. *=p<0.05; ***=p<0.001 (Student's t-test).
# [2] = system: mouse WT EpCAM+/CD24+-sorted cells; experiment: Salisphere formation assay, mouse; format: cell-based; details: 25 μM Alda-341 over 7 days
# Method: Salisphere formation assay: Cells isolated from mouse submandibular glands (SMG) were FACS sorted using cell surface markers EpCAM and CD24 as previously described and seeded on matrigel (BD Biosciences, BD356235). Cells were grown in DMEM/F12+GlutaMax (Gibco, 10565-018) media containing 10% FBS, 1× anti-anti, 1% N2 supplement (Gibco), 20 ng/mL […] (Sigma-Aldrich), 20 ng/mL fibroblast growth factor-2 (Sigma-Aldrich), 10 μg/mL insulin (Sigma-Aldrich), 1 μM dexamethasone (Sigma-Aldrich), 10 μM […] (Stem Cell Technologies). Spheres were passaged every 7 days by dissociating into single cells by incubating in 1 mg/mL dispase (BD Biosciences) for 20 minutes and 0.25% trypsin-EDTA for 20 minutes. Spheres were grown for 7 days and imaged with a BZ-X710 Keyence microscope using the z-stack function. Images were stitched together into a single image and analyzed using ImageJ (NIH) to quantify sphere number and area. Experiments were repeated at least 3 independent times.
# Sphere number per well quantified by Image J (NIH). 6 replicates per group.
compound,measurement,setting,value
"C=C(C)[C@H]1CC=C(C)CC1 [Alda-341, D-limonene]",catalytic activity of ALDH4A1,ALDH4A1,did not increase
same,catalytic activity of ALDH5A1,ALDH5A1,did not increase
same,catalytic activity of all trans-retinal in ALDH3A1,ALDH3A1,did not increase
same,enzymatic activity of the lysate from Aldh3a1(−/−) mice,[1]; 400 μg/mL Aldh3a1(−/−) salivary sphere lysate,did not increase
same,increase of enzymatic activity of WT lysate,[1]; 400 μg/mL C57BL/6 WT salivary sphere lysate,approximately 30%
same,increase in total salisphere number compared to vehicle control,[2],~15%
